Laboratory results published in ChEMBL document CHEMBL1201862, “PubChem BioAssay data set” (2004).
Several values for one entry are separate records, joined by “and”; a condition that tells them apart may be missing. Equal entries are not always repeated.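 Step 1: Grow cells in 96-well plates. Step 2: Expose to compound for 48 hours at 5 concentrations. Step 3: Interpolate endpoints linearly; if unreached, use highest concentration. GI50 = concentration required for 50% inhibition of growth.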 Activity calls are given as the source filed them. No stated cut-off is given here; in the data, active = GI50 up to about 1.1 µM and inactive = higher.

Key:
Test in all cases: growth of human tumour cells (NCI), 48 h
[1] = test system: A498
[2] = test system: A549
[3] = test system: ACHN
[4] = test system: CCRF-CEM
[5] = test system: DLD-1
[6] = test system: EKVX
[7] = test system: HCC 2998
[8] = test system: HCT-116
[9] = test system: HCT-15
[10] = test system: HOP-92
[11] = test system: HT-29
[12] = test system: IGROV-1
[13] = test system: KM-20L2
[14] = test system: KM12
[15] = test system: LOX IMVI
[16] = test system: LXFL 529
[17] = test system: M14
[18] = test system: M19-MEL
[19] = test system: Malme-3M
[20] = test system: NCI-H226
[21] = test system: NCI-H23
[22] = test system: NCI-H460
[23] = test system: NCI-H522
[24] = test system: OVCAR-4
[25] = test system: OVCAR-5
[26] = test system: RPMI-8226
[27] = test system: RXF 393
[28] = test system: SF-539
[29] = test system: SK-MEL-28
[30] = test system: SK-MEL-2
[31] = test system: SK-MEL-5
[32] = test system: SNB-19
[33] = test system: SNB-78
[34] = test system: SR
[35] = test system: SW-620
[36] = test system: TK-10
[37] = test system: U-251
[38] = test system: UACC-257
[39] = test system: UO-31
[40] = test system: XF498
[41] = test system: CAKI-1
[42] = test system: COLO 205
[43] = test system: DMS-273
[44] = test system: HL-60
[45] = test system: HOP-18
[46] = test system: HOP-62
[47] = test system: K562
[48] = test system: MCF7
[49] = test system: MOLT-4
[50] = test system: OVCAR-3
[51] = test system: OVCAR-8
[52] = test system: SF-268
[53] = test system: SF-295
[54] = test system: SK-OV-3
[55] = test system: SN12C
[56] = test system: SNB-75
[57] = test system: UACC-62
[58] = test system: 786-0
[59] = test system: DMS-114

Measured: GI50

Cc1ccc(SSCC(O)C(O)CSSc2ccc(C)cc2)cc1 (stereo unspecified)
inactive: [1] 4.51 µM | [2] 10.6 µM and 10.9 µM | [3] 11.2 µM and 15.7 µM | [4] 1.14 µM | [5] 15 µM and 14.1 µM | [6] 14.1 µM and 18.1 µM | [7] 15 µM and 14.2 µM | [8] 12.1 µM and 7.28 µM | [10] 17 µM and 11.9 µM | [11] 13.3 µM and 18.5 µM | [12] 2.99 µM and 2.14 µM | [13] 13.1 µM and 11.1 µM | [14] 9.48 µM and 11.1 µM | [15] 1.3 µM and 1.89 µM | [16] 10.6 µM and 6.01 µM | [17] 7.29 µM and 5.58 µM | [18] 16.5 µM and 11.6 µM | [19] 19 µM and 15.3 µM | [20] 15.2 µM and 15.1 µM | [21] 5.94 µM and 11.3 µM | [22] 17.5 µM and 18.1 µM | [23] 1.82 µM and 1.76 µM | [24] 13.4 µM and 14.3 µM | [25] 16.6 µM and 22.8 µM | [26] 3.66 µM and 3.26 µM | [27] 3.92 µM and 4.15 µM | [28] 3.42 µM and 3.02 µM | [29] 13.9 µM and 14.9 µM | [30] 8.18 µM | [31] 7.31 µM and 12.6 µM | [32] 15.1 µM and 14.6 µM | [33] 13.7 µM | [34] 3.55 µM and 3.29 µM | [35] 7.55 µM and 14.2 µM | [36] 15.6 µM and 13.2 µM | [37] 2.03 µM and 2.23 µM | [38] 15.6 µM and 14.4 µM | [39] 4.08 µM and 4.26 µM | [40] 17.2 µM and 13.7 µM
14.1 µM and 13.1 µM: [9]

Cc1n(CC(=O)c2ccc([N+](=O)[O-])cc2)c2c([n+]1CC(C)C)C(=O)c1ccccc1C2=O
2.88 µM: [9]
active: [1] 0.668 µM | [2] < 0.0318 µM | [41] 0.121 µM | [4] < 0.0172 µM | [42] < 0.01 µM | [5] < 0.0394 µM | [43] < 0.01 µM | [6] < 0.0109 µM | [8] < 0.02 µM | [44] < 0.01 µM | [45] < 18.4 nM | [46] 0.29 µM | [10] < 0.0226 µM | [11] < 0.0131 µM | [12] < 0.01 µM | [47] < 0.01 µM | [13] < 0.01 µM | [14] < 0.0211 µM | [15] < 0.01 µM | [48] < 10 nM | [49] < 0.0204 µM | [19] < 0.01 µM | [20] < 0.0111 µM | [21] < 0.01 µM | [22] < 40 nM | [23] < 0.01 µM | [50] < 0.0424 µM | [24] < 0.0178 µM | [25] < 0.0318 µM | [51] < 0.01 µM | [26] < 0.01 µM | [52] < 0.01 µM | [53] 0.329 µM | [28] < 0.01 µM | [29] 0.0411 µM | [30] < 0.0123 µM | [31] < 0.0106 µM | [54] 0.361 µM | [55] < 0.01 µM | [32] < 0.015 µM | [56] < 0.0356 µM | [33] < 0.0137 µM | [35] < 0.01 µM | [37] < 0.01 µM | [38] < 0.01 µM | [57] < 0.0334 µM
inactive: [39] 16.1 µM

O=C1CSC(/C(=C/c2ccccc2)c2nc3ccccc3[nH]2)=N1
inactive: [58] 65.2 µM | [1] > 100 µM | [2] 72.6 µM | [3] > 100 µM | [41] > 100 µM | [4] 34 µM | [42] > 100 µM | [5] > 100 µM | [59] 32.3 µM | [6] > 100 µM | [7] > 100 µM | [8] 41.7 µM | [44] 71.9 µM | [46] 41.2 µM | [10] 61.4 µM | [11] 73.6 µM | [12] 44.9 µM | [47] > 100 µM | [13] > 100 µM | [14] 32.4 µM | [15] > 100 µM | [16] 47.4 µM | [17] 57 µM | [18] 65.9 µM | [49] > 100 µM | [19] 60.5 µM | [20] 7.55 µM | [21] 28.1 µM | [22] > 100000 nM | [23] 41.9 µM | [50] > 10 µM | [24] > 100 µM | [25] > 100 µM | [51] 47.2 µM | [52] > 100 µM | [53] 63.8 µM | [28] 23.6 µM | [29] > 100 µM | [30] 58.2 µM | [31] 19.7 µM | [54] 23.3 µM | [55] 75.3 µM | [32] 25.9 µM | [56] 14.2 µM | [33] > 100 µM | [34] 68.2 µM | [35] > 100 µM | [36] > 100 µM | [37] 23.3 µM | [38] > 100 µM | [57] 49.8 µM | [39] > 100 µM | [40] 41.3 µM
> 100 µM: [9]

COC1=CC(C2c3cc4c(cc3[C@@H](Nc3ccc(F)cc3)C3COC(=O)[C@H]23)OCO4)=CC(=O)C1=O (stereo partly specified)
inactive: [58] 3.29 µM | [1] 2.43 µM | [2] 1.36 µM | [3] 3.1 µM | [41] 4.48 µM | [4] 2.49 µM | [42] 15.7 µM | [5] 26.2 µM | [43] 2.93 µM | [6] 20.5 µM | [7] 16.1 µM | [8] 9.89 µM | [44] 2.11 µM | [46] 1.61 µM | [10] 6.92 µM | [11] 20.2 µM | [12] 14.4 µM | [47] 10.4 µM | [13] 25.7 µM | [14] 13.3 µM | [15] 7.78 µM | [16] 11.6 µM | [17] 7.82 µM | [18] 15.4 µM | [19] 13.7 µM | [20] 11.1 µM | [21] 2.88 µM | [23] 4.33 µM | [50] 27.7 µM | [24] 39.8 µM | [25] 19.9 µM | [51] 10.1 µM | [26] 10.5 µM | [27] 50.2 µM | [52] 8.05 µM | [53] 3.21 µM | [28] 4.37 µM | [29] 19.2 µM | [31] 9.35 µM | [54] 4.46 µM | [55] 4.32 µM | [32] 5.57 µM | [56] 6.81 µM | [33] > 51.9 µM | [35] 12.7 µM | [36] 19.2 µM | [37] 2.78 µM | [38] 37.6 µM | [57] 5.68 µM | [39] 7.66 µM | [40] 5.98 µM
11.1 µM: [9]
active: [49] 0.524 µM | [22] 608 nM | [34] 0.506 µM

COc1c(O)c(C=O)c2c(O)c(-c3c(C)cc4c(C(C)C)c(OC)c(O)c(C=O)c4c3O)c(C)cc2c1C(C)C [6,6'-METHOXYGOSSYPOL]
inactive: [1] 11.4 µM | [2] 3.52 µM | [3] 2.43 µM | [41] 6.08 µM | [4] 5.16 µM | [42] 1.89 µM | [5] 4.38 µM | [59] 3.08 µM | [43] 5.11 µM | [6] 4.86 µM | [7] 2.65 µM | [8] 2.61 µM | [44] 4.46 µM | [46] 2.98 µM | [10] 2.2 µM | [11] 4.13 µM | [12] 5.47 µM | [47] 11.8 µM | [13] 6.01 µM | [14] 5.05 µM | [16] 3.96 µM | [17] 9.86 µM | [18] 3.65 µM | [49] 7.53 µM | [19] 5.75 µM | [20] 2.43 µM | [21] 3.61 µM | [22] 4720 nM | [23] 2.62 µM | [50] 3.37 µM | [24] 3.86 µM | [25] 7.08 µM | [51] 3.74 µM | [26] 4.32 µM | [27] 2.52 µM | [52] 5.71 µM | [53] 4.19 µM | [28] 4.36 µM | [29] 6.61 µM | [30] 4.45 µM | [31] 9.23 µM | [54] 4.19 µM | [55] 2.74 µM | [32] 3.88 µM | [56] 2.4 µM | [33] 25.3 µM | [34] 4.4 µM | [35] 5.33 µM | [36] 6.71 µM | [37] 3.2 µM | [38] 10.9 µM | [57] 11.9 µM | [39] 3.3 µM
3.74 µM: [9]
